Test results from patent publication US20030187003A1, “Pharmaceutical compositions and method for the treatment of retroviral infections” (priority 2000, published 2003).

Tests used:
HIV-1(IIIB) [1] = test: inhibition of virus-induced cytopathicity in MT-4 cells, HIV-1 (IIIB); format: cell-based; conditions: for EC50: MT-4 cells, viral cytopathic effect, 5 days post-infection
HIV-1 L1 = test: inhibition of virus-induced cytopathicity in MT-4 cells, HIV-1 clinical isolate L1; format: cell-based; conditions: Human immunodeficiency virus 1, MT4, 120 h, read-out: EC50 HIV-1 L1
HIV-2 (EHO) = test: inhibition of virus-induced cytopathicity in MT-4 cells, HIV-2 (EHO); format: cell-based; conditions: Human immunodeficiency virus 2, MT4, 120 h, read-out: EC50 HIV-2 EHO
SIV (MAC251) = test: inhibition of virus-induced cytopathicity in MT-4 cells, SIV (MAC251); format: cell-based, Simian immunodeficiency virus; conditions: Simian immunodeficiency virus, MT4, 120 h, read-out: EC50 SIV MAC251
[2] = cytotoxicity, viability of mock-infected cells; format: cell-based; conditions: human, viability of mock-infected MT-4 cells
Description: Cytotoxicity of these compounds was determined in parallel by measuring the viability of mock-infected MT-4 or C8166 cells 5 days post-infection. The antiviral activity and cytotoxicity data, including average values and standard deviations for at least two separate experiments, are depicted in Table 2, wherein: CC50 represents the 50% cytotoxic concentration, i.e. the concentration that reduces by 50% the viability of MT-4 cells.

HIV-1 NL43/AMD3100 = test: microbe, parasite or virus in culture; format: cell-based
HIV-1 L2 = format: cell-based
HIV-1 L4 = format: cell-based
HIV-1 L6 = format: cell-based; conditions: L6 versus wild type strain L1
[3] = system: HIV-1 strains L2, L4 and L6; test: antiviral activity against multi-drug resistant (MddNR) HIV-1 strains; format: cell-based; conditions: strains L2, L4 and L6 versus parental strain L1
HIV-1(IIIB) [4] = test: time of addition experiment, viral p24 antigen production; format: cell-based; conditions: MT-4 cells, m.o.i. 0.5, 250 μM, p24 at 31 hours post-infection
Description: A time of addition experiment was carried out in order to investigate which step of the replicative cycle was inhibited by compound H. Briefly, this experiment determines how long the addition of an anti-HIV compound can be postponed before losing its antiviral activity in the viral replication cycle. MT-4 cells were infected with HIV-1(IIIB) at a multiplicity of infection (m.o.i.) of 0.5 in order to synchronize all steps of viral replication and the various antiviral test compounds were added at different times (ranging from 0 up to 26 hours) after infection. Viral p24 antigen production was determined 31 hours post-infection (using HIV-1 p24 Core Profile ELISA, Du Pont, Dreieich, Germany) and is expressed as the log10 of the p24 Ag content in pg/ml. Reference compounds with a known mode of action were included in this experiment. Dextran sulfate, a polyanion, interferes with binding of the virus to the cell. The nucleoside analogue AZT inhibits the reverse transcription process. Ritonavir is a proteolytic cleavage inhibitor. […]. Compound H was added at 250 μM. In FIG. 1 showing the results of this experiment, the following symbols were used: (●) for control, (▴) for dextran sulfate (20 μM), (▪) for AZT (1.9 μM), (▪) for ritonavir (2.8 μM) and (*) for compound H (250 μM).

[5] = system: HIV-1-derived vectors pseudotyped with the VSV-G envelope; test: microbe, parasite or virus in culture; format: cell-based; conditions: Human immunodeficiency virus 1, HEK-293T, read-out: EC50 inhibition of transduction
[6] = target: T1, Recombinant HIV-1 RT (HXB2) (Human immunodeficiency virus type 1 group M subtype B, UniProt P04585); test: inhibition of HIV-1 reverse transcriptase enzymatic activity; format: biochemical
T1 construct: Recombinant HIV-1 RT (HXB2) was obtained as described by Jonckheere et al; made in house
Description: Poly(rC).oligo(dG) and poly (rA).oligo(dT) were used as template-primers, and 8-[^3H]-dGTP and [^3H]-dTTP were used as radiolabelled substrates.

HIV-1 integrase = target: T2, HIV-1 integrase (Human immunodeficiency virus type 1 group M subtype B, UniProt P04585); test: HIV-1 integrase binding assay, biosensor (BIAcore); conditions: preincubation of integrase with 93 μM compound, 37° C.
T2 construct: HIV-1 integrase (100 μl of a 33 μM solution)
Description: Binding experiments were carried out using biosensor technology on BlAcore2000 (Biacore) and sensor chips SA™ with pre-immobilized streptavidin. The binding experiment was carried out at 37° C. following the procedures of the manufacturer. The binding buffer B (20 mM HEPES at pH 7.5) contained 50 mM NaCI, 10 mM MgCl2 and 5 mM DTT. First, the 3′-biotinylated oligonucleotide 5′-[…]-3′ was bound to the sensor chip. Subsequently, the complementary 35-mer 5′-[…]-3′ was hybridized to the captured oligonucleotide, resulting in an integrase recognition sequence at the free end. HIV-1 integrase (100 μl of a 33 μM solution) diluted 10-fold in dilution buffer (10 mM Tris.HCl, pH7.5/750 mM NaCl/10% glycerol/1 mM β-mercaptoethanol) and another 10-fold in buffer B, was injected at a final concentration of 330 nM with a flow rate of 10 μl/minute passing first a blank channel and then the channel with the specific oligonucleotide. A specific adsorption in the blank channel was subtracted.

[7] = target: T3, recombinant His-tagged HIV-1 integrase (Human immunodeficiency virus type 1 group M subtype B, UniProt P04585); test: HIV-1 integrase 3′-processing assay, oligonucleotide-based
Description: (§1) Reactions were started by the addition of the enzyme. Inhibitors were incubated shortly with the reaction components before the addition of integrase. Reactions were allowed to proceed at 37° C. for 7 minutes and stopped by the addition of formamide loading buffer (95% formamide, 30 mM ethylenediamine tetraacetic acid, 0.1% xylene cyanol, 0.1% bromophenol blue, 0.1% sodium dilaurylsulfate SDS). In the overall integration assay, this reaction was allowed to proceed for 60 minutes before the addition of a formamide dye.

[8] = target: T3, recombinant His-tagged HIV-1 integrase; test: HIV-1 integrase strand transfer assay, oligonucleotide-based
[9] = target: T3, recombinant His-tagged HIV-1 integrase; test: HIV-1 integrase overall integration assay, oligonucleotide-based
Description: as §1

O=[N+]([O-])c1ccc(C2c3c(O)nc(S)nc3Oc3nc(S)nc(O)c32)cc1 [compound H, 5-(4-nitrophenyl)-2,8-dithiol-4,6-dihydroxy-5H-pyrano[2,3-d:6,5-d′]dipyrimidine]
EC50 (HIV-1(IIIB) [1]; Human immunodeficiency virus 1, IIIB, MT4, 120 h): 11.4 µM | EC50 (HIV-1(IIIB) [1]): 8.9 ± 0.7 µM | activity against the replication of HIV-1(IIIB) (HIV-1(IIIB) [1]; in words): active | EC50 (HIV-1 L1): 3.7 ± 1.8 µM | EC50 (HIV-2 (EHO)): 3.7 ± 0.1 µM | EC50 (SIV (MAC251)): 5.5 ± 0.9 µM | CC50 at 5 days [2]: 121 µM | EC50 (HIV-1 NL43/AMD3100; Human immunodeficiency virus 1, NL43): 19.1 ± 1.4 µM | fold increase in EC50 (HIV-1 NL43/AMD3100; NL43/AMD3100 versus wild type strain NL4.3): 1.3 | activity against HIV-1 strain resistant to bicyclam (HIV-1 NL43/AMD3100; in words): active | EC50 (HIV-1 L2; Human immunodeficiency virus 1): 6 ± 2.3 µM | fold increase in EC50 (HIV-1 L2; L2 versus wild type strain L1): 1.6 | EC50 (HIV-1 L4; Human immunodeficiency virus 1): 11.7 ± 0.7 µM | fold increase in EC50 (HIV-1 L4; L4 versus wild type strain L1): 3.2 | fold increase in EC50 (HIV-1 L6): 2.8 | reduction in inhibitory potency [3]: ≤ 3 fold | time the addition can be postponed after virus infection (HIV-1(IIIB) [4]): 6 h | EC50 [5]: 17 µM | IC50 ([6]; IC50 Poly(A).oligo(dT), template-primer poly(A).oligo(dT)): 24.6 ± 7.2 µM | IC50 ([6]; IC50 poly(C).oligo(dG), template-primer poly(C).oligo(dG)): 4.8 ± 2.2 µM | binding of integrase to the DNA (HIV-1 integrase): completely abolished | IC50 [7]: 0.9 ± 0.4 µM | inhibition of the 3-processing reaction ([7]; in words): inhibited | IC50 [8]: 16.1 ± 10.7 µM | effect on the DNA strand transfer reaction ([8]; in words): strong inhibitory effect | IC50 [9]: 0.3 ± 0.2 µM | inhibition of the overall integration reaction ([9]; in words): inhibited
